# Results from patent US9834512B2, “(22E)-2-methylene-26,27-cyclo-22-dehydro-1α-hydroxy-19-norvitamin D3 derivatives” (WISCONSIN ALUMNI RESEARCH FOUNDATION, priority 2011, dated 2017).
# “Also recorded” adds a separate entry of the source. Read-outs that look alike come from different tables or passages of the source.
# Key:
# [1] = tested on: Sprague-Dawley rats; test: Bone calcium mobilization (serum calcium); format: in vivo, rat; conditions: for Bone calcium mobilization activity: rat, intraperitoneal, at the doses tested
# Description: (§1) Male, weanling Sprague-Dawley rats were placed on Diet 11 (0.47% Ca) diet+AEK oil for one week followed by Diet 11 (0.02% Ca)+AEK oil for 3 weeks. The rats were then switched to a diet containing 0.47% Ca for one week followed by two weeks on a diet containing 0.02% Ca. Dose administration began during the last week on 0.02% calcium diet. Four consecutive intraperitoneal doses were given approximately 24 hours apart. Twenty-four hours after the last dose, blood was collected from the severed neck and the concentration of serum calcium determined as a measure of bone calcium mobilization. The first 10 cm of the intestine was also collected for intestinal calcium transport analysis using the everted gut sac method.
# (§2) Antagonism was tested by administering a combination of 1,25(OH)2D3 and the putative antagonist to the animal simultaneously.
# [2] = tested on: HL-60 cells; test: HL-60 differentiation (nitro blue tetrazolium reduction); format: cell-based, human; conditions: for EC50: Homo sapiens, HL-60; for HL-60 cell differentiation activity: compound alone; for HL-60 Differentiation (Relative Activity): native hormone value / working example value, same assay
# Description: The study drugs were dissolved in ethanol and the concentrations determined using UV spectrophotometry. Serial dilutions were prepared so that a range of drug concentrations could be tested without changing the final concentration of ethanol (≦0.2%) present in the cell cultures.
# Human promyelocytic leukemia (HL60) cells were grown in RPMI-1640 medium containing 10% fetal bovine serum. The cells were incubated at 37° C. in the presence of 5% CO2.
# HL60 cells were plated at 1.2×10^5 cells/ml. Eighteen hours after plating, cells in duplicate were treated with the drug. Four days later, the cells were harvested and a nitro blue tetrazolium reduction assay was performed (Collins et al., 1979; J. Exp. Med. 149:969-974). The percentage of differentiated cells was determined by counting a total of 200 cells and recording the number that contained intracellular black-blue formazan deposits. Verification of differentiation to monocytic cells was determined by measuring phagocytic activity (data not shown).
# Antagonism was tested by adding a combination of 1,25(OH)2D3 and the putative antagonist in the same well keeping the final ethanol concentration the same.
# [3] = biological target: T1, vitamin D receptor (Rattus norvegicus, UniProt P13053); test: Competitive vitamin D receptor binding; conditions: for Competitive VDR Binding (Relative Activity): native hormone value / working example value, same assay; for Competitive VDR Binding (Relative Activity) / Ki: present compounds; for Ki: read-out: Competitive VDR Binding, Ki; for Binding to the nuclear vitamin D receptor compared with native hormone: versus 1,25(OH)2D3; for VDR binding activity relative to CN-67 (ratio of relative activities): versus CN-67
# T1 construct: Full-length recombinant rat receptor was expressed in E. coli; His tag (C); made in house; host or cells: E. coli BL21(DE3) Codon Plus RIL
# T1 sequence (P13053 1-423): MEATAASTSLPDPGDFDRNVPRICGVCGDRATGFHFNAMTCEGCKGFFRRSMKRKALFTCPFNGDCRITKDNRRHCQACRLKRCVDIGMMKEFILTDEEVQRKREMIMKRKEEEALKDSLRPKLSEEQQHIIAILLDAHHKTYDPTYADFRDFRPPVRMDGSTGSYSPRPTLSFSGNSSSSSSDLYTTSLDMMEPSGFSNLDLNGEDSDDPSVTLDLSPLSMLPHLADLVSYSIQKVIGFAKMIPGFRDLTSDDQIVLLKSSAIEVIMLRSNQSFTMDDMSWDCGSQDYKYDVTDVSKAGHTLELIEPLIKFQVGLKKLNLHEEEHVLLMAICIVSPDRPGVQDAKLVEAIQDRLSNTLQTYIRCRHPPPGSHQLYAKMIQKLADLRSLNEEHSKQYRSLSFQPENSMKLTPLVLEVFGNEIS
# Description: Full-length recombinant rat receptor was expressed in E. coli BL21(DE3) Codon Plus RIL cells and purified to homogeneity using two different column chromatography systems. The first system was a nickel affinity resin that utilizes the C-terminal histidine tag on this protein. The protein that was eluted from this resin was further purified using ion exchange chromatography (S-Sepharose Fast Flow). Aliquots of the purified protein were quick frozen in liquid nitrogen and stored at −80° C. until use. For use in binding assays, the protein was diluted in TEDK50 (50 mM Tris, 1.5 mM EDTA, pH 7.4, 5 mM DTT, 150 mM KCl) with 0.1% Chaps detergent. The receptor protein and ligand concentration was optimized such that no more than 20% of the added radiolabeled ligand was bound to the receptor.
# Unlabeled ligands were dissolved in ethanol and the concentrations determined using UV spectrophotometry (1,25(OH)2D3: molar extinction coefficient=18,200 and λmax=265 nm; Analogs: molar extinction coefficient=42,000 and λmax=252 nm). Radiolabeled ligand (^3H-1,25(OH)2D3, ˜159 Ci/mmole) was added in ethanol at a final concentration of 1 nM.
# Radiolabeled and unlabeled ligands were added to 100 mcl of the diluted protein at a final ethanol concentration of ≦10%, mixed and incubated overnight on ice to reach binding equilibrium. The following day, 100 mcl of hydroxylapatite slurry (50%) was added to each tube and mixed at 10-minute intervals for 30 minutes. The hydroxylapaptite was collected by centrifugation and then washed three times with Tris-EDTA buffer (50 mM Tris, 1.5 mM EDTA, pH 7.4) containing 0.5% Titron X-100. After the final wash, the pellets were transferred to scintillation vials containing 4 ml of Biosafe II scintillation cocktail, mixed and placed in a scintillation counter. Total binding was determined from the tubes containing only radiolabeled ligand.
# [4] = tested on: 24-hydroxylase (24OHase) gene promoter; test: In vitro 24-hydroxylase transcription assay (luciferase reporter, ROS 17/2.8 bone cells); format: cell-based; conditions: for Antagonism of gene transactivation stimulated by native hormone: combined with 1,25(OH)2D3; for 24OHase Transcription (Relative Activity): native hormone value / working example value, same assay
# Description: Transcription activity was measured in ROS 17/2.8 (bone) cells that were stably transfected with a 24-hydroxylase (24OHase) gene promoter upstream of a luciferase reporter gene (Arbour et al., 1998). Cells were given a range of doses. Sixteen hours after dosing, the cells were harvested and luciferase activities were measured using a luminometer. RLU=relative luciferase units.
# [5] = tested on: Sprague-Dawley rats; test: Intestinal calcium transport (everted gut sac); format: in vivo, rat; conditions: for Intestinal calcium transport activity compared with native hormone: rat, intraperitoneal; for Intestinal calcium transport activity at very high doses: very high doses (e.g., 2340-2600 pmol)
# Description: as §1, §2
# [6] = biological target: T1, vitamin D receptor; conditions: compounds of U.S. Pat. No. 7,915,242; read-out: Competitive VDR Binding, Ki; cited from earlier work
# [7] = combined with 1,25(OH)2D3, systemic administration
# [8] = when administered with 1,25(OH)2D3, present compounds
EC50 ([2]; present compounds),Competitive VDR Binding (Relative Activity) [3],Ki [3],VDR binding activity relative to CN-67 (ratio of relative activities) [3],EC50 ([4]; present compounds),Structure (SMILES),Bone calcium mobilization activity [1],HL-60 cell differentiation activity [2],HL-60 Differentiation (Relative Activity) ([2]; present compounds),Binding to the nuclear vitamin D receptor compared with native hormone [3],Antagonism of gene transactivation stimulated by native hormone [4],24OHase Transcription (Relative Activity) ([4]; present compounds),Intestinal calcium transport activity compared with native hormone [5],Intestinal calcium transport activity at very high doses [5],Ki [6],further results
> 1000 nM,1.0,0.1 nM,≈ 67 times,6 nM,"C=C1[C@H](O)CC(=C/C=C2\CCC[C@]3(C)[C@@H]([C@H](C)/C=C/[C@@H](O)C4(C(=O)SCCCC)CC4)CC[C@@H]23)C[C@H]1O [AS-51, (20R,22E,24R)-25-carbobutylsulfanyl-2-methylene-26,27-cyclo-22-dehydro-1α,24-dihydroxy-19-norvitamin D3]",essentially inactive in releasing bone calcium stores; also recorded: neither PP-48 nor AS-51 demonstrate any appreciable ability to mobilize calcium from bone,does not effectively promote cellular differentiation,0.002,same potency as the native hormone; also recorded: bind the vitamin D receptor,can inhibit gene transactivation stimulated by the native hormone; also recorded: antagonistic activity; also recorded: inhibits gene transactivation stimulated by the native hormone,0.02,"somewhat less active than 1,25(OH)2D3 in stimulating intestinal calcium transport at very high doses; also recorded: potency less than that of the native hormone at low doses",increased intestinal calcium transport activity at very high doses,,"In vivo antagonism in combination with native hormone (bone calcium mobilization) [1, 7]: no antagonism was observed; Concentrations showing inhibition of cellular differentiation ([2]; antagonist mode): 10^−8-10^−7 M; Inhibition of native hormone-induced HL-60 differentiation ([2]; combined with 1,25(OH)2D3): potent inhibitor of the native hormone; also recorded: antagonistic activity; HL-60 potency relative to CN-67 (ratio of relative activities) ([2]; versus CN-67): ≈ 0.03; HL-60 potency relative to OU-72 (ratio of relative activities) ([2]; versus OU-72): ≈ 0.007; HL-60 Differentiation, antagonism [2, 8]: Antagonistic; Concentrations showing inhibition of gene transactivation ([4]; antagonist mode): 10^−8-10^−7 M; Times less potent than native hormone in increasing transcription of the 24-hydroxylase gene ([4]; bone cells, versus 1,25(OH)2D3): ~60 times; 24-hydroxylase transcription potency relative to CN-67 (ratio of relative activities) ([4]; versus CN-67, bone cells): ≈ 3; 24-hydroxylase transcription potency relative to OU-72 (ratio of relative activities) ([4]; versus OU-72, bone cells): 2; 24OHase Transcription, antagonism [4, 8]: Antagonistic; In vivo antagonism in combination with native hormone (intestinal calcium transport) [5, 7]: no antagonism was observed"
,,,,,"C=C1C(O)CC(=CC=C2CCCC3(C)C2CCC3C(C)C=CC(OCCCC)C2(C(=O)OCCCC)CC2)CC1O [CN-67, (22E)-(24R)-24-butoxy-25-carbobutoxy-2-methylene-26,27-cyclo-22-dehydro-1α-hydroxy-19-norvitamin D3]",,,,,,,,,1.5 nM,
,,,,,"C=C1C(O)CC(=CC=C2CCCC3(C)C2CCC3C(C)C=CC(O)C2(C(=O)OCCCC)CC2)CC1O [OU-72, (22E)-(24R)-25-carbobutoxy-2-methylene-26,27-cyclo-22-dehydro-1α,24-dihydroxy-19-norvitamin D3]",,,,,,,,,0.023 nM,
30 nM,0.17,0.6 nM,≈ 11 times,2 nM,"C=C1[C@H](O)CC(=C/C=C2\CCC[C@]3(C)[C@@H]([C@H](C)/C=C/C(=O)C4(C(=O)CCC(C)C)CC4)CC[C@@H]23)C[C@H]1O [PP-48, (20R,22E)-2-methylene-25-(4-methylpentanoyl)-24-oxo-26,27-cyclo-22-dehydro-1α-hydroxy-19-norvitamin D3]",essentially no ability to mobilize calcium from bone; also recorded: essentially inactive in releasing bone calcium stores; also recorded: neither PP-48 nor AS-51 demonstrate any appreciable ability to mobilize calcium from bone,agonistic behavior; also recorded: active in causing HL-60 differentiation,0.1,"lower affinity relative to 1,25(OH)2D3; also recorded: lower affinity than the native hormone; also recorded: bind the vitamin D receptor",no antagonistic activity,0.1,potency similar to that of the native hormone,increased intestinal calcium transport activity at very high doses,,"24-hydroxylase transcription activity ([4]; compound alone): agonistic behavior; also recorded: exhibits activity in 24-hydroxylase transcription, albeit reduced from the native hormone; Intestinal calcium transport activity at moderate doses ([5]; moderate doses): only PP-48 increased such transport significantly at moderate doses"
